# Measured values from article PMC10287695, “Non-covalent inhibitors of thioredoxin glutathione reductase with schistosomicidal activity in vivo” (Nature Communications, 2023).
# Several values for one entry are separate records, joined by “and”; a condition that tells them apart may be missing. Identical values can stand only once.
# Test system: TGR in newly transformed schistosomula (NTS)
# Test: TGR inhibition in NTS with TRFS-Green fluorescent probe;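 further: untreated reference is NTS exposed to TRFS-Green probe alone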
# Format: cell-based, S. mansoni
# Settings: NTS
# Method: TGR inhibition in NTS was assessed using a fluorescent probe TRFS-Green (Medchemexpress)[43]. NTS prepared as previously described and cultured in M199 supplemented with 5.5 mM D-glucose, penicillin-streptomycin and 5% heat inactivated fetal bovine serum were incubated at 37 °C in a clear bottom flat well plate in a 5% CO2 incubator overnight. […] NTS were further treated with TRFS-Green (10 µM) for additional 4 h and rinsed with M199 medium to remove residual TRFS-Green. Fluorescence images were obtained using Keyence BZ-X800. The quantification of fluorescence intensity upon the uptake of TRFS-Green by NTS was performed by a fluorescent microplate imager (BioTek Cytation3) (excitation, 438 nm; emission, 538 nm) hourly for 5 h and after 24 h.
Structure (SMILES),"TGR inhibition visualized by TRFS-Green, Average (1hr, 5 µM)","TGR inhibition visualized by TRFS-Green, single replicate (1hr, 5 µM)","TGR inhibition visualized by TRFS-Green, Average (1hr, 15 µM)","TGR inhibition visualized by TRFS-Green, single replicate (1hr, 15 µM)","TGR inhibition visualized by TRFS-Green, Average (1hr, 30 µM)","TGR inhibition visualized by TRFS-Green, single replicate (1hr, 30 µM)","TGR inhibition visualized by TRFS-Green, Average (2hr, 5 µM)","TGR inhibition visualized by TRFS-Green, single replicate (2hr, 5 µM)","TGR inhibition visualized by TRFS-Green, Average (2hr, 15 µM)","TGR inhibition visualized by TRFS-Green, single replicate (2hr, 15 µM)","TGR inhibition visualized by TRFS-Green, Average (2hr, 30 µM)","TGR inhibition visualized by TRFS-Green, single replicate (2hr, 30 µM)","TGR inhibition visualized by TRFS-Green, Average (3hr, 5 µM)","TGR inhibition visualized by TRFS-Green, single replicate (3hr, 5 µM)","TGR inhibition visualized by TRFS-Green, Average (3hr, 15 µM)","TGR inhibition visualized by TRFS-Green, single replicate (3hr, 15 µM)","TGR inhibition visualized by TRFS-Green, Average (3hr, 30 µM)","TGR inhibition visualized by TRFS-Green, single replicate (3hr, 30 µM)","TGR inhibition visualized by TRFS-Green, Average (4hr, 5 µM)","TGR inhibition visualized by TRFS-Green, single replicate (4hr, 5 µM)",further results
C[C@@H]1[C@H]2C[C@@H](C[C@H]1NCc1nc3ccccc3n1C)C2(C)C [C12 (8VP51)],11939.5,11982 and 11897,10673,10612 and 10734,10618.5,10903 and 10334,23845.5,23846 and 23845,20564.5,20516 and 20613,19325.5,19387 and 19264,33943,33973 and 33913,30062,30013 and 30111,28073.5,28013 and 28134,35461,35481 and 35441,"TGR inhibition visualized by TRFS-Green, Average (4hr, 15 µM): 33991.5; TGR inhibition visualized by TRFS-Green, single replicate (4hr, 15 µM): 33999 and 33984; TGR inhibition visualized by TRFS-Green, Average (4hr, 30 µM): 32914; TGR inhibition visualized by TRFS-Green, single replicate (4hr, 30 µM): 32993 and 32835; TGR inhibition visualized by TRFS-Green, Average (5hr, 5 µM): 41567.5; TGR inhibition visualized by TRFS-Green, single replicate (5hr, 5 µM): 41048 and 42087; TGR inhibition visualized by TRFS-Green, Average (5hr, 15 µM): 38445; TGR inhibition visualized by TRFS-Green, single replicate (5hr, 15 µM): 39026 and 37864; TGR inhibition visualized by TRFS-Green, Average (5hr, 30 µM): 33178.5; TGR inhibition visualized by TRFS-Green, single replicate (5hr, 30 µM): 33374 and 32983; TGR inhibition visualized by TRFS-Green, Average (24hr, 5 µM): 78091; TGR inhibition visualized by TRFS-Green, single replicate (24hr, 5 µM): 78082 and 78100; TGR inhibition visualized by TRFS-Green, Average (24hr, 15 µM): 70233; TGR inhibition visualized by TRFS-Green, single replicate (24hr, 15 µM): 70452 and 70014; TGR inhibition visualized by TRFS-Green, Average (24hr, 30 µM): 60492.5; TGR inhibition visualized by TRFS-Green, single replicate (24hr, 30 µM): 60864 and 60121"
Cc1oc(-c2ccc3c(c2)OCO3)nc1CN[C@@H]1C[C@@H]2C[C@H]([C@H]1C)C2(C)C [C1 (8VP70)],10571.8,10560.7 and 10583,9457,9312 and 9602,9252.5,9204 and 9301,14162,14242 and 14082,13529,13095 and 13963,11887.5,11941 and 11834,23711,23581 and 23841,21817.5,21984 and 21651,16831,16892 and 16770,25462.5,25241 and 25684,"TGR inhibition visualized by TRFS-Green, Average (4hr, 15 µM): 21898; TGR inhibition visualized by TRFS-Green, single replicate (4hr, 15 µM): 21795 and 22001; TGR inhibition visualized by TRFS-Green, Average (4hr, 30 µM): 16836.5; TGR inhibition visualized by TRFS-Green, single replicate (4hr, 30 µM): 16939 and 16734; TGR inhibition visualized by TRFS-Green, Average (5hr, 5 µM): 26920; TGR inhibition visualized by TRFS-Green, single replicate (5hr, 5 µM): 26917 and 26923; TGR inhibition visualized by TRFS-Green, Average (5hr, 15 µM): 22092; TGR inhibition visualized by TRFS-Green, single replicate (5hr, 15 µM): 23039 and 21145; TGR inhibition visualized by TRFS-Green, Average (5hr, 30 µM): 16893.5; TGR inhibition visualized by TRFS-Green, single replicate (5hr, 30 µM): 16853 and 16934; TGR inhibition visualized by TRFS-Green, Average (24hr, 5 µM): 28552; TGR inhibition visualized by TRFS-Green, single replicate (24hr, 5 µM): 28103 and 29001; TGR inhibition visualized by TRFS-Green, Average (24hr, 15 µM): 23755.5; TGR inhibition visualized by TRFS-Green, single replicate (24hr, 15 µM): 23599 and 23912; TGR inhibition visualized by TRFS-Green, Average (24hr, 30 µM): 16807; TGR inhibition visualized by TRFS-Green, single replicate (24hr, 30 µM): 16780 and 16834"
C[C@@H]1[C@H]2C[C@@H](C[C@H]1NCc1nc3ccccc3n1C1CCCCCC1)C2(C)C [C8 (9VP173)],11538.5,11535 and 11542,11107.5,11094 and 11121,7413.5,7434 and 7393,18549,18864 and 18234,17855.5,17877 and 17834,9154.5,9096 and 9213,28617,28491 and 28743,26316,26509 and 26123,12119,12004 and 12234,29563.5,29504 and 29623,"TGR inhibition visualized by TRFS-Green, Average (4hr, 15 µM): 26307.5; TGR inhibition visualized by TRFS-Green, single replicate (4hr, 15 µM): 26632 and 25983; TGR inhibition visualized by TRFS-Green, Average (4hr, 30 µM): 10530.5; TGR inhibition visualized by TRFS-Green, single replicate (4hr, 30 µM): 10830 and 10231; TGR inhibition visualized by TRFS-Green, Average (5hr, 5 µM): 37986; TGR inhibition visualized by TRFS-Green, single replicate (5hr, 5 µM): 37989 and 37983; TGR inhibition visualized by TRFS-Green, Average (5hr, 15 µM): 27117; TGR inhibition visualized by TRFS-Green, single replicate (5hr, 15 µM): 26702 and 27532; TGR inhibition visualized by TRFS-Green, Average (5hr, 30 µM): 12834; TGR inhibition visualized by TRFS-Green, single replicate (5hr, 30 µM): 12855 and 12813; TGR inhibition visualized by TRFS-Green, Average (24hr, 5 µM): 47666; TGR inhibition visualized by TRFS-Green, single replicate (24hr, 5 µM): 46698 and 48634; TGR inhibition visualized by TRFS-Green, Average (24hr, 15 µM): 29478.5; TGR inhibition visualized by TRFS-Green, single replicate (24hr, 15 µM): 29985 and 28972; TGR inhibition visualized by TRFS-Green, Average (24hr, 30 µM): 14283.5; TGR inhibition visualized by TRFS-Green, single replicate (24hr, 30 µM): 14485 and 14082"
